Molecules are shown by their SMILES. Active and inactive are the calls of the source. No cut-off for these calls is given here.

Common to all, as to conditions: dose 10-50 µM
Assay [1] addresses T1, Ubiquitin carboxyl-terminal hydrolase 22 (Homo sapiens) (UniProt Q9UPT9).
T1 sequence (whole entry): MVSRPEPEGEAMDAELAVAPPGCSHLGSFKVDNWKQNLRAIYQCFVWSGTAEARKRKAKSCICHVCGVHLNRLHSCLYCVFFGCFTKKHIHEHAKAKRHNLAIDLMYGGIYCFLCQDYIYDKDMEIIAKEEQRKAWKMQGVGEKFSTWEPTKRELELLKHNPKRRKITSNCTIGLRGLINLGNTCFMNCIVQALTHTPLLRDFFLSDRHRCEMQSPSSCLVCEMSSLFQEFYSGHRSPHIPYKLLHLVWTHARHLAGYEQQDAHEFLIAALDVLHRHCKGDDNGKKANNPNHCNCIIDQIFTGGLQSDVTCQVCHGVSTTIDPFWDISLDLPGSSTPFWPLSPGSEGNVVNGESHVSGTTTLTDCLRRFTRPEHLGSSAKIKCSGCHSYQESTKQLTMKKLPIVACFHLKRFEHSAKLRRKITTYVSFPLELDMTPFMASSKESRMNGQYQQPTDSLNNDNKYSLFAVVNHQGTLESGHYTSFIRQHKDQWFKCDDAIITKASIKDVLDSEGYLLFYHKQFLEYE
Description: Inhibition of human USP22 (1 to 525 residues) expressed in Sf9 cells using ubiquitin rhodamine 110 as substrate assessed as remaining enzyme activity at 10 to 50 uM by fluorometric assay.

Assay [2] deals with Ubiquitin carboxyl-terminal hydrolase 7 (Homo sapiens) (UniProt Q93009). Description: Inhibition of human USP7 (1 to 1102 residues) expressed in Sf9 cells using ubiquitin rhodamine 110 as substrate assessed as remaining enzyme activity at 10 to 50 uM by fluorometric assay.
Ubiquitin carboxyl-terminal hydrolase 7 (Homo sapiens), sequence (Q93009 whole entry, looked up, the tested form may be a part): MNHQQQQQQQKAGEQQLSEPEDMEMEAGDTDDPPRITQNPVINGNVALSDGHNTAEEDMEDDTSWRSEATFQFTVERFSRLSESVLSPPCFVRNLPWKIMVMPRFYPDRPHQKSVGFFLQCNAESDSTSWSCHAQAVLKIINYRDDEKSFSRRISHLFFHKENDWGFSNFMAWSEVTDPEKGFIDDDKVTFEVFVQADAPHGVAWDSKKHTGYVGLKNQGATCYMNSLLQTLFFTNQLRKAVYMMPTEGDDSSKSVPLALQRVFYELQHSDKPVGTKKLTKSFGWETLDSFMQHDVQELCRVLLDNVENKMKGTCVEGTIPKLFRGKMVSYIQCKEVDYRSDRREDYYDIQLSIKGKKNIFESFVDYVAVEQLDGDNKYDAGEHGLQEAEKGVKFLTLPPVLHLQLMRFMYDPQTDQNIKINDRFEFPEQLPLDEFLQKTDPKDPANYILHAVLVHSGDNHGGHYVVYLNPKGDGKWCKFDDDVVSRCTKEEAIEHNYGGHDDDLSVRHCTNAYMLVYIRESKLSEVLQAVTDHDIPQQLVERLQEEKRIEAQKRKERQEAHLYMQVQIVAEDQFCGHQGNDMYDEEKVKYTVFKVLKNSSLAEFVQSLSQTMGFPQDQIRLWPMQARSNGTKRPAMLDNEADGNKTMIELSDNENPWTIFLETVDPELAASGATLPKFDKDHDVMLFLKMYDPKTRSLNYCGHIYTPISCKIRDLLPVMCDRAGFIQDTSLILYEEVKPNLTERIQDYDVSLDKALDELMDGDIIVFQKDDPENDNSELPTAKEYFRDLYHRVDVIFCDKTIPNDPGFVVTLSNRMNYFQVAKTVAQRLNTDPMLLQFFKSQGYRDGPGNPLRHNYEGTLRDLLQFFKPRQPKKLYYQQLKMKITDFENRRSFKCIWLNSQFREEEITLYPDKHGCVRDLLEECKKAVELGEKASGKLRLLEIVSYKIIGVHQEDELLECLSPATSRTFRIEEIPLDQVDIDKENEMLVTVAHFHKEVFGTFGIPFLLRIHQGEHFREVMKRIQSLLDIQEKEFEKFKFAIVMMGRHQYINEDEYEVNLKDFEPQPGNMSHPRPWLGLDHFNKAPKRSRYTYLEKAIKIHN
Assay [3] has as its target T2, Ubiquitin carboxyl-terminal hydrolase 4 (Homo sapiens) (UniProt Q13107).
T2 sequence (whole entry): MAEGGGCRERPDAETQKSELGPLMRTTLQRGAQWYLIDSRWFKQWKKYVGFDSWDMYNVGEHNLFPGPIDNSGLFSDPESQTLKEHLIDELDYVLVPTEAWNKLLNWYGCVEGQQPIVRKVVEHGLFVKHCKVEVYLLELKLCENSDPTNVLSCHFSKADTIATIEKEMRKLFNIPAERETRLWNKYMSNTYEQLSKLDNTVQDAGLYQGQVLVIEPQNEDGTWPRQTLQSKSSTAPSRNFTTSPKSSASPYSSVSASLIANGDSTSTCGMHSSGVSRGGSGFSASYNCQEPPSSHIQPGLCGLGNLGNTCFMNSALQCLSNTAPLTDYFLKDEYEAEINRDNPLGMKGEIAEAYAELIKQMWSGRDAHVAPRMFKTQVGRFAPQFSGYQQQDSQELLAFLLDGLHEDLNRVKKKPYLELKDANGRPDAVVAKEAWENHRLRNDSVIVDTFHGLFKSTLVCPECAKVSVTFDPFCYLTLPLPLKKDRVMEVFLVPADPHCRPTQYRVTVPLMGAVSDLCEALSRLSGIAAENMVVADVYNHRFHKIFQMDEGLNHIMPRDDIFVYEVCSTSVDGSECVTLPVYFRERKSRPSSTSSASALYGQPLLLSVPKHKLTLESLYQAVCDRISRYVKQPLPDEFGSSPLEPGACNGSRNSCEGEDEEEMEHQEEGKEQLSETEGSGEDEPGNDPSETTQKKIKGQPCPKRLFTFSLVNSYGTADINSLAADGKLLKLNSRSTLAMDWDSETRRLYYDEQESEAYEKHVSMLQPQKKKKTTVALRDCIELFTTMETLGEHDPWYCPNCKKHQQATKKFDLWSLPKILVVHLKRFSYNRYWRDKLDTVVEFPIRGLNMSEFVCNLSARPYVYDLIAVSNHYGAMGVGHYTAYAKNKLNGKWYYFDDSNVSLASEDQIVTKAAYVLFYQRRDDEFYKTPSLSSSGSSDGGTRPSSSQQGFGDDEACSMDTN
Description: Inhibition of human USP4 using ubiquitin rhodamine 110 as substrate at 10 to 50 uM by fluorometric assay.

Assay [4] addresses T3, Ubiquitin carboxyl-terminal hydrolase 5 (Homo sapiens) (UniProt P45974).
T3 sequence (whole entry): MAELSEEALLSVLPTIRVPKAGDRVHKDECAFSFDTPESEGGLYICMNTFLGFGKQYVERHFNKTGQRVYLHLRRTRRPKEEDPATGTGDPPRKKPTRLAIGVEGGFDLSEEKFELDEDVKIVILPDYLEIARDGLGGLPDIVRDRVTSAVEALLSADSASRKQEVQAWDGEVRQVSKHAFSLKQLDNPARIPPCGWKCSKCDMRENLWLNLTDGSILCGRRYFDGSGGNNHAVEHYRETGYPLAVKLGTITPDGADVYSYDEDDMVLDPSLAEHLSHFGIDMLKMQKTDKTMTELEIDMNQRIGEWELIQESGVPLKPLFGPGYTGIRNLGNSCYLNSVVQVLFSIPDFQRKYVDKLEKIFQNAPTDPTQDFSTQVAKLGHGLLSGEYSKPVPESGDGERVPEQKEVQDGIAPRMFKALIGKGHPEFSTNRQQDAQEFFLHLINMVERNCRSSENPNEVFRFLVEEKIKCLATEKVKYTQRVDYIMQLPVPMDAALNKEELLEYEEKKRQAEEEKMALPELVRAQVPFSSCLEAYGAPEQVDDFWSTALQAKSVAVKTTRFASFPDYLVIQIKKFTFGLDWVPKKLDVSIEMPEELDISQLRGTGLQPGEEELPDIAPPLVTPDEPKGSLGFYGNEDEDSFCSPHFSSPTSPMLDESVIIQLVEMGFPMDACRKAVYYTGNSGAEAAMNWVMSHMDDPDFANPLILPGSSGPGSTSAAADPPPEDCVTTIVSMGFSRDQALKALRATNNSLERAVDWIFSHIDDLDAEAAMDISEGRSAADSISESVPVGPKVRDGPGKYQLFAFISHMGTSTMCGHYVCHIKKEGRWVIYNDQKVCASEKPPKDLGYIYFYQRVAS
In words: Inhibition of human USP5 using ubiquitin rhodamine 110 as substrate at 10 to 50 uM by fluorometric assay.

With `CC(NC(=O)C1CCCC1)C(=O)Nc1nnc(Cc2ccc([N+](=O)[O-])cc2)s1` (racemic), the Activity in assay [1] and in assay [2] was under 50% throughout.

`CC(C)C[C@H](NC(=O)C1(C(F)(F)F)CCCCC1)C(=O)Nc1nnc(Cc2ccc(C#N)cc2)s1`: the inhibition result in assay [3] and in assay [4] was “inactive” throughout.
